Read-outs that look alike come from different tables or passages of the source. Marks after values point to notes of the source that are not given here. Values belong to the compound of their own block, whether it stands above or below them.
Key:
LOX-5 = experiment: 5-LOX enzyme inhibitory assay (polarographic, Clark oxygen electrode); type: biochemical, potato; conditions: mean ± SD, n = 3
Method: The IC50 was determined for the studied compounds and reference standards. […] Furthermore, 5-LOX enzyme was extracted from potato tubers as described previously. […] The enzyme activity was expressed as moles of oxygen consumed per min/mg protein, as 5-LOX adds oxygen to the substrate, implying that the rate of decrease of oxygen in the reaction mixture was intrinsic to the measurement of enzyme activity. The results were expressed as IC50 (μg/mL) for the sample and reference compounds in triplicate.

COX-1 = target: T1, COX-1 (Ovis aries, UniProt P05979); experiment: COX-1 enzyme inhibitory assay (COX inhibitor screening kit); type: biochemical
T1 construct: purchased Cayman Chemicals 560131
T1 sequence (P05979 25-600): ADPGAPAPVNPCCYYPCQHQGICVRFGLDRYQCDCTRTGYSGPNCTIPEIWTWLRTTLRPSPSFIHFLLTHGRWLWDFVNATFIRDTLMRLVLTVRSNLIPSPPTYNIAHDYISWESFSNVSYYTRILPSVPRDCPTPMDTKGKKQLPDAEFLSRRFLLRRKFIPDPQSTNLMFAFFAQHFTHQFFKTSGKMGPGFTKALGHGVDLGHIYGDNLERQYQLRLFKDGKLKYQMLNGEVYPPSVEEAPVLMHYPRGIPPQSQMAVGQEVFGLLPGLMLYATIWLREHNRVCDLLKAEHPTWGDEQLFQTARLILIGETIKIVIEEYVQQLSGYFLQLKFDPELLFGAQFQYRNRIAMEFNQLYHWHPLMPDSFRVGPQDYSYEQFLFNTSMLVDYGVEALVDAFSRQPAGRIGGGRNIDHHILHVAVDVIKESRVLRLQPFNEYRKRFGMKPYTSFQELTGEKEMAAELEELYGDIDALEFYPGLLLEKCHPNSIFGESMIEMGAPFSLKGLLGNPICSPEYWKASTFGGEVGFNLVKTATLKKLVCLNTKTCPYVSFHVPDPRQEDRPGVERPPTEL

COX-2 = target: T2, COX-2 (Homo sapiens, UniProt P35354); experiment: COX-2 enzyme inhibitory assay (COX inhibitor screening kit); type: biochemical; conditions: mean ± SD, n = 3; read-out: Enzyme Inhibitory Effect IC50 COX-2 (converted)
T2 construct: purchased Cayman Chemicals 560131
T2 sequence (P35354 18-604): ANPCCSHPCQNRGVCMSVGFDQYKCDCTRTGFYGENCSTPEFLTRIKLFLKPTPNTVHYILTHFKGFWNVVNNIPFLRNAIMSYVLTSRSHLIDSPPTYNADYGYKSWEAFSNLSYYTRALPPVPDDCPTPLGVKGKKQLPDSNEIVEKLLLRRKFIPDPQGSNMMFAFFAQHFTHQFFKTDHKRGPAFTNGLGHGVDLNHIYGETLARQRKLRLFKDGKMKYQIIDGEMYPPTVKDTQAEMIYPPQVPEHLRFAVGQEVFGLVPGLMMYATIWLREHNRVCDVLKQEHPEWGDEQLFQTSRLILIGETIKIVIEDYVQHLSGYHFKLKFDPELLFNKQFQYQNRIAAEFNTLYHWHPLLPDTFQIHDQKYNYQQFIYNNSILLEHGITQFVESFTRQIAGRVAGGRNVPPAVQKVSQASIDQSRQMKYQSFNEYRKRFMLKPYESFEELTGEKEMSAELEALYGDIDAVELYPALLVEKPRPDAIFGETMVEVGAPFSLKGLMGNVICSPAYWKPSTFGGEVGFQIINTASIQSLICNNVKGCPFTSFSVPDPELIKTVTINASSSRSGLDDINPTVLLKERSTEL

Bcl-2 = experiment: Western blot, Bcl-2 expression; type: cell-based, human; conditions: HeLa, 30 μg/mL, 12, 24, and 48 h
Method: (§1) HeLa cells (1.5 × 10^6 cells/well) were seeded in six-well plates and cultured in MEM supplemented with 10% FBS for 24 h. Subsequently, the cells were treated with the indicated amounts of Q3G or DMSO as a vehicle control for 12–48 h. Following this, the cells were collected, and total lysates from treated cells were prepared in RIPA buffer for 15 min. Protein concentration was determined using a Bio-Rad protein assay kit with BSA [63]. […] Membranes were treated with PBS containing 0.05% Tween 20 and 5% nonfat dry milk to block nonspecific binding at 15–25 °C and were incubated overnight at 4 °C with the following specific primary antibodies: caspase-9/-3, Bax, Bcl-2, Bid, CDK2, and MuD. β-Actin was used as an invariant control for equal loading of total proteins. After incubation with the primary antibody, the membranes were incubated with the appropriate secondary antibodies conjugated to horseradish peroxidase. Finally, immunoreactive bands were visualized using an enhanced chemiluminescence substrate (Bio-Rad).

HeLa cells [1] = experiment: Intracellular ROS production (DCFDA fluorescence); type: cell-based, human; conditions: 30 μg/mL
Method: Cellular ROS production was analyzed as previously described with minor modifications to the original methodology. Briefly, cells were seeded at a density of 1.5 × 10^4/well in a black, clear bottom 96-well plate. The following day, cells were treated with […] (30 μg/mL) or DMSO as a vehicle control for 12-48 h. Forty-five minutes prior to completion of the treatment, 100 μL of 2× H2DCFDA dilution was overlayed in each well and incubated in 5% CO2 with DCFDA as well as the compounds for 30 min at 37 °C. The fluorescence in each well was assessed on a microplate reader at the end point in the presence of compounds and DCFDA with Ex/Em = 485/535 nm wavelengths.

caspase-9 = experiment: Western blot, caspase-9 expression; type: cell-based, human; conditions: HeLa, 30 μg/mL, 12, 24, and 48 h
Method: as §1

CDK2 = experiment: Western blot, CDK2 expression; type: cell-based, human; conditions: HeLa, 30 μg/mL, 12-48 h
Method: as §1

HeLa cells [2] = experiment: Cell cycle analysis by PI flow cytometry; type: cell-based, human; conditions: 30 μg/mL, listed as Q3G
Method: Cell cycle analysis was performed in HeLa cells as previously described. Cells were seeded into six-well plates at a density of 2 × 10^5 cells per well and treated with […] (30 μg/mL) for 12-48 h. Thereafter, the cells were harvested, washed with PBS, and fixed at 4 °C for 1 h in a 70% PBS-ethanol solution. Cells were subsequently washed twice with PBS, and 50 μL of a 100 μg/mL stock of DNase-free RNase was added to ensure that only DNA, not RNA, was stained. Cell pellets were stained with a fluorescent probe PI (50 μg/mL) and incubated at RT for 30 min, and then analyzed using a NovoCyte 1000 benchtop flow cytometer (ACEA Biosciences, San Diego, CA, USA).

WST cell viability assay = type: cell-based, human; conditions: human, HeLa cells, HeLa
Method: (§2) The viability of HeLa cells treated with […] (0-100 μg/mL, concentrations) was examined for 24-72 h using a colorimetric WST assay. Briefly, HeLa cells were cultured in a clear-bottom 96-well plate at a density of 9 × 10^3 cells/well in MEM supplemented with 10% FBS and 1% penicillin-streptomycin in a 5% CO2 incubator and incubated for 24 h at 37 °C. The […] stock solution was prepared in DMSO and stored at -20 °C. Subsequently, the cells were exposed to various concentrations of […] (0-100 μg/mL) over a period of 24-72 h. The cell proliferation reagent WST-1 solution (10 μL/well) was added to the plates, followed by incubation in 5% CO2 for 2 h at 37 °C in the dark. Thereafter, the plates were shaken thoroughly for 1 min on a shaker at RT, and the absorbance of the reporter substrate was measured at 450 nm and 600 nm (reference wavelength 650 nm) using a microplate reader coupled with the Gen5 software (BioTek, Winooski, VT, USA).

HeLa cells [3] = experiment: WST cell viability assay; type: cell-based, human; conditions: for Cell Viability (%): HeLa, 40 μg/mL, listed as Q3G
Method: as §2

MuD = experiment: Western blot, MuD expression; type: cell-based, human; conditions: HeLa, 30 μg/mL, 12, 24, and 48 h
Method: as §1

Bax = experiment: Western blot, Bax expression; type: cell-based, human; conditions: HeLa, 30 μg/mL, 12, 24, and 48 h
Method: as §1

HeLa cells [4] = experiment: Annexin V-FITC/PI apoptosis assay by flow cytometry; type: cell-based, human
Method: Annexin V-FITC/propidium iodide (PI) assay was performed as per the manufacturer's instructions (Sino Biological, Beijing, China). Briefly, HeLa cells (2 × 10^5 cells/well) in 6-well culture plates were treated with […] (30 μg/mL) or with DMSO as a vehicle control for 24 and 48 h. Subsequently, floating as well as adherent cells were collected and washed with PBS. The cells were centrifuged at 400× g for 5 min at RT and resuspended in binding buffer containing Annexin V-FITC, along with PI. In each experiment, 1 × 10^4 cells were analyzed for annexin V-FITC/PI staining after incubation for 20 min at RT in the dark.

[5] = mean ± SD, n = 3, read-out: Enzyme Inhibitory Effect IC50 COX-1 (converted)

Enzyme Inhibitory Effect IC50 LOX-5 (LOX-5): 10.09 ± 1.03 ^f μg/mL | IC50 (COX-1): 63 µM
SMILES: Oc1cc(O)c2c(c1)O[C@H](c1ccc(O)c(O)c1)[C@H](O)C2 [Epicatechin]

IC50 (COX-2): 121 µM | Enzyme Inhibitory Effect IC50 LOX-5 (LOX-5): 16.86 ± 1.22 ^h μg/mL | IC50 (COX-1; [5]): 91.7 µM
SMILES: O=C(CCc1ccc(O)cc1)c1c(O)cc(O)cc1O [Phloretin]

IC50 (COX-2): 83 µM | Enzyme Inhibitory Effect IC50 LOX-5 (LOX-5): 18.98 ± 0.85 ^i μg/mL | IC50 (COX-1; [5]): 65.6 µM
SMILES: O=C(CCc1ccc(O)cc1)c1c(O)cc(O)cc1O[C@@H]1O[C@H](CO)[C@@H](O)[C@H](O)[C@H]1O [Phloridzin]

IC50 (COX-2): 37.4 µM | IC50 (COX-1; [5]): 20.2 µM
SMILES: O=c1c(O)c(-c2ccc(O)c(O)c2)oc2cc(O)cc(O)c12 [Quercetin]

More lines, now with the values behind:

SMILES: O=C(O)/C=C/c1ccc(O)c(O)c1 [Caffeic acid]
Enzyme Inhibitory Effect IC50 LOX-5 (LOX-5): 12.26 ± 0.91 ^g μg/mL | IC50 (COX-1; [5]): 113 µM

SMILES: O=C(/C=C/c1ccc(O)c(O)c1)O[C@@H]1C[C@](O)(C(=O)O)C[C@@H](O)[C@H]1O [Chlorogenic acid]
IC50 (COX-2): 75.3 µM | Enzyme Inhibitory Effect IC50 LOX-5 (LOX-5): 9.98 ± 0.94 ^e μg/mL | IC50 (COX-1; [5]): 39.7 µM

SMILES: O=C(O)/C=C/c1ccc(O)cc1 [Coumaric acid]
IC50 (COX-2): 93.2 µM | Enzyme Inhibitory Effect IC50 LOX-5 (LOX-5): 7.96 ± 0.76 ^d μg/mL | IC50 (COX-1; [5]): 55.4 µM

SMILES: O=c1c(O[C@@H]2O[C@H](CO)[C@@H](O)[C@H](O)[C@H]2O)c(-c2ccc(O)c(O)c2)oc2cc(O)cc(O)c12 [Quercetin-3-glucoside, quercetin 3-β-D-glucoside]
level of anti-apoptotic protein Bcl-2 (Bcl-2): reduced | ROS level higher than the control group (HeLa cells [1]; 12 h): approximately 6 fold | ROS level higher than the control group (HeLa cells [1]; 24 h): ~12 fold | expression of the initiator caspase, caspase-9 (caspase-9): reduced | protein expression of CDK2 (CDK2): decreasing | cells in S phase (HeLa cells [2]; 24 h): ~56% | cells in S phase (HeLa cells [2]; 48 h): ~63% | viability at 48 h, 0.1 μg/mL (WST cell viability assay; 0.1 μg/mL, 48 h): 114.98 ± 0.05% | viability at 48 h, 1 μg/mL (WST cell viability assay; 1 μg/mL, 48 h): 103.3 ± 0.12% | viability at 48 h, 10 μg/mL (WST cell viability assay; 10 μg/mL, 48 h): 116.1 ± 0.01% | viability at 24 h, 40 μg/mL (WST cell viability assay; 40 μg/mL, 24 h): 83% | viability at 48 h, 40 μg/mL (WST cell viability assay; 40 μg/mL, 48 h): 36% | viability at 72 h, 40 μg/mL (WST cell viability assay; 40 μg/mL, 72 h): 18% | viability at 48 h, 50 μg/mL (WST cell viability assay; 50 μg/mL, 48 h): 29.6% | viability at 48 h, 100 μg/mL (WST cell viability assay; 100 μg/mL, 48 h): 41.81 ± 0.01% | concentrations with significant growth inhibition (HeLa cells [3]; HeLa cells, 48 h): higher than 10 µg/mL | Cell Viability (%) (HeLa cells [3]; 24 h): 83.30 ± 4.05% | Cell Viability (%) (HeLa cells [3]; 48 h): 36.27 ± 1.38% | Cell Viability (%) (HeLa cells [3]; 72 h): 17.97 ± 1.42% | MuD expression (MuD): markedly reduced | level of Bax (Bax): increase | cells in early apoptosis (HeLa cells [4]; 30 μg/mL, 48 h): Approximately 20% | cells in the late apoptosis phase (HeLa cells [4]; 30 μg/mL, 48 h): ~35% | difference in apoptosis (early and late phase) compared with the control cells (HeLa cells [4]; 24 h of treatment): No significant difference | increase in the number of apoptotic cells (Annexin V-positive cells) (HeLa cells [4]; after 48 h compared to after 24 h of treatment): 16–22% | Enzyme Inhibitory Effect IC50 LOX-5 (LOX-5): 2.31 ± 0.32 ^b μg/mL | IC50 (COX-1): 7.8 µM

Source: paper PMC8509831 (International Journal of Molecular Sciences, 2021)
